In brackets after ≈: the same amount, converted by molar mass.
Tests used:
[1] = Initial solubility screen with various excipients; type: physicochemical; conditions: for solubility at 24 h: fully dissolved after 24 h
[2] = Follow-up solubility assessment (cosolvent mixtures, surfactants); type: physicochemical; conditions: thermodynamic from solid, ibudilast conc. 75 mg/mL
Protocol: Solubility of ibudilast was assessed using cosolvent mixtures with and without water, increased surfactant concentrations, or a combination of surfactant and cosolvents as shown in the following table.

In the case of `CC(C)C(=O)c1c(C(C)C)nn2ccccc12` [ibudilast, 3-isobutyryl-2-isopropylpyrazolo[1,5-a]pyridine], the solubility ([1]; aqueous buffer, thermodynamic from solid, acetate buffer pH 5, 50 mM, ibudilast conc. 5 mg/mL) is reported as 0.175 mg/mL (≈ 0.76 mM), the solubility ([1]; aqueous buffer, thermodynamic from solid, borate buffer pH 9, 50 mM, ibudilast conc. 5 mg/mL) is reported as 0.171 mg/mL (≈ 0.742 mM) and the solubility ([1]; aqueous buffer, thermodynamic from solid, citrate buffer pH 3, 50 mM, ibudilast conc. 5 mg/mL) is reported as 0.375 mg/mL (≈ 1.63 mM). It also gave a solubility ([1]; aqueous buffer, thermodynamic from solid, phosphate buffer pH 7.5, 50 mM, ibudilast conc. 5 mg/mL) of 0.175 mg/mL (≈ 0.76 mM), a solubility ([1]; aqueous with cosolvent or surfactant or cyclodextrin, thermodynamic from solid, HP-β-CD 10% w/v, ibudilast conc. 25 mg/mL) of 2.11 mg/mL (≈ 9.14 mM) and a solubility ([1]; aqueous with cosolvent or surfactant or cyclodextrin, thermodynamic from solid, HP-β-CD 30% w/v, ibudilast conc. 25 mg/mL) of 6.72 mg/mL (≈ 29.2 mM). It also gave a solubility ([1]; aqueous with cosolvent or surfactant or cyclodextrin, thermodynamic from solid, Kolliphor ELP 5% w/v, ibudilast conc. 25 mg/mL) of 6.82 mg/mL (≈ 29.6 mM), a solubility at 24 h ([1]; aqueous with cosolvent or surfactant or cyclodextrin, thermodynamic from solid, Kolliphor ELP 30% w/v, ibudilast conc. 25 mg/mL, solubility may be higher) of 28 mg/mL (≈ 122 mM) and a solubility ([1]; aqueous with cosolvent or surfactant or cyclodextrin, thermodynamic from solid, Kolliphor HS 15 5% w/v, ibudilast conc. 25 mg/mL) of 5.64 mg/mL (≈ 24.5 mM). The solubility ([1]; aqueous with cosolvent or surfactant or cyclodextrin, thermodynamic from solid, Kolliphor HS 15 50% w/v, ibudilast conc. 25 mg/mL) was 22.8 mg/mL (≈ 99 mM), the solubility ([1]; aqueous with cosolvent or surfactant or cyclodextrin, thermodynamic from solid, Kolliphor RH 40 5% w/v, ibudilast conc. 25 mg/mL) was 5.58 mg/mL (≈ 24.2 mM) and the solubility ([1]; aqueous with cosolvent or surfactant or cyclodextrin, thermodynamic from solid, Kolliphor RH 40 30% w/v, ibudilast conc. 25 mg/mL) was 29.5 mg/mL (≈ 128 mM). For the same compound, the solubility ([1]; aqueous with cosolvent or surfactant or cyclodextrin, thermodynamic from solid, PEG 400 25% w/v, ibudilast conc. 25 mg/mL) was 1.11 mg/mL (≈ 4.81 mM), the solubility ([1]; aqueous with cosolvent or surfactant or cyclodextrin, thermodynamic from solid, SBE-β-CD 10% w/v, ibudilast conc. 25 mg/mL) was 3.79 mg/mL (≈ 16.4 mM) and the solubility ([1]; aqueous with cosolvent or surfactant or cyclodextrin, thermodynamic from solid, SBE-β-CD 30% w/v, ibudilast conc. 25 mg/mL) was 11.9 mg/mL (≈ 51.6 mM). It also gave a solubility ([1]; aqueous with cosolvent or surfactant or cyclodextrin, thermodynamic from solid, Tween 20 5% w/v, ibudilast conc. 25 mg/mL) of 3.21 mg/mL (≈ 13.9 mM), a solubility at 24 h ([1]; aqueous with cosolvent or surfactant or cyclodextrin, thermodynamic from solid, Tween 20 50% w/v, ibudilast conc. 25 mg/mL, solubility may be higher) of 27.2 mg/mL (≈ 118 mM) and a solubility ([1]; aqueous with cosolvent or surfactant or cyclodextrin, thermodynamic from solid, Tween 80 5% w/v, ibudilast conc. 25 mg/mL) of 4.79 mg/mL (≈ 20.8 mM). The solubility ([1]; aqueous with cosolvent or surfactant or cyclodextrin, thermodynamic from solid, Tween 80 30% w/v, ibudilast conc. 25 mg/mL) was 21.5 mg/mL (≈ 93.4 mM), the solubility ([1]; aqueous with cosolvent or surfactant or cyclodextrin, thermodynamic from solid, ethanol 25% w/v, ibudilast conc. 25 mg/mL) was 4.15 mg/mL (≈ 18 mM) and the solubility ([1]; aqueous with cosolvent or surfactant or cyclodextrin, thermodynamic from solid, glycerol 25% w/v, ibudilast conc. 25 mg/mL) was 0.385 mg/mL (≈ 1.67 mM). For the same compound, the solubility ([1]; organic solvent or mixture, thermodynamic from solid, PEG 400 100% w/v, more ibudilast added up to 50 mg/mL after 2 h tumbling, solubility may be higher) was 51.6 mg/mL (≈ 224 mM), the solubility ([1]; organic solvent or mixture, thermodynamic from solid, ethanol 100% w/v, more ibudilast added up to 50 mg/mL after 2 h tumbling, solubility may be higher) was 50 mg/mL (≈ 217 mM) and the solubility ([1]; organic solvent or mixture, thermodynamic from solid, glycerol 100% w/v, ibudilast conc. 25 mg/mL) was 10.3 mg/mL (≈ 44.7 mM). For the same compound, the solubility ([1]; organic solvent or mixture, thermodynamic from solid, propylene glycol 100% w/v, more ibudilast added up to 50 mg/mL after 2 h tumbling, solubility may be higher) was 52.9 mg/mL (≈ 230 mM), the solubility ([1]; water, ibudilast conc. 5 mg/mL) was 0.186 mg/mL (≈ 0.808 mM) and the solubility ([2]; Kolliphor ELP/ethanol/water 5/50/45 % w/v, aqueous with cosolvent or surfactant or cyclodextrin) was 83.7 mg/mL. For the same compound, the solubility ([2]; Kolliphor ELP/propylene glycol/water 5/50/45 % w/v, aqueous with cosolvent or surfactant or cyclodextrin) was 19.4 mg/mL, the solubility ([2]; Kolliphor ELP/propylene glycol/water 30/50/20 % w/v, aqueous with cosolvent or surfactant or cyclodextrin) was 72.9 mg/mL and the solubility ([2]; Kolliphor ELP/water 30/70 % w/v, aqueous with cosolvent or surfactant or cyclodextrin) was 42.7 mg/mL. The solubility ([2]; Kolliphor ELP/water 80/20 % w/v, aqueous with cosolvent or surfactant or cyclodextrin, less than 5 mL added due to viscosity of medium) was 97.6 mg/mL, the solubility ([2]; PEG 400/water 50/50 % w/v cosolvent mixture, aqueous with cosolvent or surfactant or cyclodextrin, PEG 400/water 50/50 % w/v) was 9.22 mg/mL and the solubility ([2]; Tween 80/ethanol/water 5/50/45 % w/v, aqueous with cosolvent or surfactant or cyclodextrin) was 84 mg/mL. For the same compound, the solubility ([2]; Tween 80/propylene glycol/water 5/50/45 % w/v, aqueous with cosolvent or surfactant or cyclodextrin) was 14.8 mg/mL, the solubility ([2]; Tween 80/propylene glycol/water 30/50/20 % w/v, aqueous with cosolvent or surfactant or cyclodextrin) was 76.3 mg/mL and the solubility ([2]; Tween 80/water 30/70 % w/v, aqueous with cosolvent or surfactant or cyclodextrin) was 31.9 mg/mL. The solubility ([2]; Tween 80/water 80/20 % w/v, aqueous with cosolvent or surfactant or cyclodextrin, less than 5 mL added due to viscosity of medium) was 84.4 mg/mL, the solubility ([2]; aqueous with cosolvent or surfactant or cyclodextrin, propylene glycol/ethanol/water 50/25/25 % w/v) was 71.4 mg/mL and the solubility ([2]; ethanol/water 50/50 % w/v, aqueous with cosolvent or surfactant or cyclodextrin) was 72.6 mg/mL. It also gave a solubility ([2]; organic solvent or mixture, propylene glycol/PEG 400/glycerol 50/25/25 % w/v) of 68.7 mg/mL, a solubility ([2]; organic solvent or mixture, propylene glycol/ethanol/glycerol 50/25/25 % w/v) of 71.9 mg/mL and a solubility ([2]; propylene glycol/PEG 400/water 50/25/25 % w/v, aqueous with cosolvent or surfactant or cyclodextrin) of 31.3 mg/mL. The solubility ([2]; propylene glycol/water 50/50 % w/v, aqueous with cosolvent or surfactant or cyclodextrin) was 5.82 mg/mL and the solubility ([2]; propylene glycol/water 80/20 % w/v, aqueous with cosolvent or surfactant or cyclodextrin) was 37.3 mg/mL.

From patent US20240016729A1, “INJECTABLE FORMULATIONS OF IBUDILAST” (MediciNova, Inc., priority 2022, published 2024)
